Series [1] relates to Giardia lamblia. Conditions: humans; background, The New York Times, June 10, 1980; cited from earlier work.
For series [2] the following is noted: cited from earlier work.
For series [3], the system named is Giardia lamblia. Nature of the series: In vitro anti-Giardia lamblia activity (viable organisms counted by hemacytometer, 50% inhibition of growth). The class given is cell-based. Conditions: Giardia duodenalis, read-out: Anti-G. lamblia ED50. As for the experimental part:
About 1.0-2.0 ml of a nutrient medium, for example, the modified Diamond's TPS medium at pH 7.05, together with about 10% by volume of heat-inactiviated serum and about 1% by volume of antibiotic-antimycotic solution is placed in each well of a multiwell plate. To this mixture, an aliquot of a suspension of G. lamblia cells containing about 10^6 organisms is added. Subsequently, each well is inoculated with a known concentration of one of the active compounds. The multiwell plate containing the individual culture samples is incubated under anaerobic conditions at about 37° C. for about 16-24 hrs. The number of viable cells remaining in each well are then counted, such as with a hemacytometer. […]
In each well of a multiwell plate is placed 1.4 ml of media mix containing Diamond's TPS medium (see Table 2) at pH 7.05, 10% by volume of heat-inactivated fetal bovine serum, and 1% by volume of an antibiotic-antimycotic solution (see Table 3). […] The cells are resuspended in a small volume of the Diamond's medium, counted, and each well inoculated with approximately 10^6 organisms. […] After 24 hours of incubation each well is mixed and counted for viable organisms using a hemacytometer. The percentage of survival is determined by comparing the treated wells to controls treated with dimethylsulfoxide. […]

A further series deals with T. foetus. Description: In vitro anti-Trichomonas foetus activity (50% inhibition of growth). The class given is cell-based, Trichomonas foetus KV1. Conditions: for IC50: Tritrichomonas foetus, read-out: Anti-T. foetus ED50. As for the experimental part:
The activity of these compounds against Giardia lamblia and Trichomonas foetus are shown by the following test:
About 1.0-2.0 ml of a nutrient medium, for example, the modified Diamond's TPS medium at pH 7.05, together with about 10% by volume of heat-inactiviated serum and about 1% by volume of antibiotic-antimycotic solution is placed in each well of a multiwell plate. To this mixture, an aliquot of a suspension of G. lamblia cells containing about 10^6 organisms is added. Subsequently, each well is inoculated with a known concentration of one of the active compounds. The multiwell plate containing the individual culture samples is incubated under anaerobic conditions at about 37° C. for about 16-24 hrs. The number of viable cells remaining in each well are then counted, such as with a hemacytometer. The percentage of survival is determined by comparison with controls inoculated with DMSO (dimethylsulfoxide) and the effective concentration (in parts per million) for 50% inhibition of growth (ED50) is determined. It is established that the lower the number of the value of ED50, the higher the activity of the active compound.
In each well of a multiwell plate is placed 1.4 ml of media mix containing Diamond's TPS medium (see Table 2) at pH 7.05, 10% by volume of heat-inactivated fetal bovine serum, and 1% by volume of an antibiotic-antimycotic solution (see Table 3). A suspension of Giardia lamblia is centrifuged at 2,500 xg. for 6 minutes. The cells are resuspended in a small volume of the Diamond's medium, counted, and each well inoculated with approximately 10^6 organisms. A stock solution of fluorouracil is made at a concentration of 150 μg/ml. The wells are then inoculated with various concentrations of the drug. The plates are incubated for 24 hours at 37° C. in an anaerobic Gas Pak jar. After 24 hours of incubation each well is mixed and counted for viable organisms using a hemacytometer. The percentage of survival is determined by comparing the treated wells to controls treated with dimethylsulfoxide. […]

In the next series the test system is T. vaginalis. Description: Anti-T. vaginalis activity. The note with it: procedure of Example 2; refers to Table 1. The class given is cell-based, Trichomonas vaginalis.

The structures appear in SMILES notation. ≈ marks a conversion by molar mass, not a printed value. Read-outs that look alike come from different tables or passages of the source.

For `CCN(CC)CCCC(C)Nc1c2ccc(Cl)cc2nc2ccc(OC)cc12` (stereo not drawn) [Atabrine], the “treatment of giardiasis infection” value with Giardia lamblia [1] is reported as “successfully treated”. Also, the adverse side effects result in series [2] (in vivo) was “known to cause adverse side effects”.
Regarding `Cc1ncc([N+](=O)[O-])n1CCO` [Flagyl, metronidazole], the “treatment of giardiasis infection” value with Giardia lamblia [1] is “successfully treated”. Also, the adverse side effects entry in series [2] (in vivo) is on record as “known to cause adverse side effects”.
For `[O-][n+]1ccnc(O)c1` [emimycin, 2-hydroxypyrazine-4-oxide], the IC50 was 22 µg/mL (≈ 196 µM) with Giardia lamblia [3] (in vitro, effective concentration for 50% inhibition of growth, about 10^6 organisms per well, 37° C., anaerobic, 16-24 hrs (Example 1: 24 hours), controls with DMSO) and less than 1 µg/mL with T. foetus (in vitro, 50% inhibition of growth, T. foetus KV1 in Example 2, 37° C., 24 hours). The “anti-T. vaginalis activity (in words)” value with T. vaginalis is “active anti-T. vaginalis agents”.
For the compound `O=c1[nH]cc(F)c(=O)[nH]1` [fluorouracil, 5-fluoro-2,4-(1H,3H)pyrimidenedione], the figures for the IC50 in the series on Giardia lamblia [3] and in the series with T. foetus (24 h) were 100 µg/mL (≈ 769 µM) and 3 µg/mL (≈ 23.1 µM), respectively. In addition, the “anti-T. foetus activity (in words)” value in the series with T. foetus (in vitro, T. foetus KV1, 37° C., 24 hours) is “effective anti-T. foetus agent”.
Regarding `O=C1OCCN1N=Cc1ccc([N+](=O)[O-])o1` [furazolidione], the “treatment of giardiasis infection” value in the series on Giardia lamblia [1] was “successfully treated”. Also, the adverse side effects result in series [2] (humans, background, The New York Times, June 10, 1980) is given as “known to cause adverse side effects”.

Source of the values: US4424220A, “Treatment of giardiasis and trichomoniasis” (priority 1982, dated 1984).
